US8951541B2, “Method of modifying dissolution rate of particles by addition of hydrophobic nanoparticles” (3M Innovative Properties Company, priority 2010, dated 2015)

Experiment: Rate of dissolution of acetaminophen and acetaminophen/nanoparticle mixtures in DIW by UV/Vis absorbance at 243 nm
Assay type: physicochemical
Settings: 0.013 g in 1000 mL DIW
Description: The following procedure (similar to USP30-NF 25, Mar. 17, 2008) was used to measure the rate and intensity of dissolution of acetaminophen and acetaminophen/nanoparticle mixtures in Millipore H2O (i.e., DIW).
Three samples of acetaminophen were weighed out. One sample was used as a control sample (Comparative K). A pre-determined amount of surface modified nanoparticles were added to each of the other samples. Sample 14 was combined with 1 weight percent nanoparticles (0.013 g) and sample 15 was combined with 0.5 weight percent nanoparticles (0.0065 g). Each blended sample was prepared by adding the nanoparticles to the acetaminophen. […]
Each blended sample was then measured separately by adding to different glass beakers, each of which contained 1000 mL of DIW and a magnetic stir-bar. […] 0.013 g of the blended samples were measured out and added to the stirred DIW.
While the acetaminophen was being dissolved in the DIW, 1.5 mL samples of the DIW and acetaminophen mixtures were removed every two minutes by pipette. The UV/Vis spectra of the samples were immediately measured using a UV/Vis spectrophotometer (obtained from PerkinElmer, Waltham, Mass., under the trade designation “LAMBDA 35 UV/VIS SPECTROPHOTOMETER), specifically focusing on the 243 nm absorbance.
This was determined to be the final measured value needed for subsequent experiments. […]

- absorbance intensity at 243 nm (final measured value) (stirred, plateau value): approximately 0.86
- Slope (slope between first two time points: change in absorbance at 243 nm/change in time, in seconds): 0.0029
Compound: CC(=O)Nc1ccc(O)cc1 [Comparative K, acetaminophen]
